For experiment [1], the system named is circulating CD3+CD4+ T cells. Put plainly: Phase 2 TAO trial: INFγ and IL-17A in circulating T cells (flow cytometry). The note with it: TAO patients, 20 mg/Kg, 24-week treatment. It is filed as in vivo, human. As for the experimental part:
Studies of circulating CD34^+ fibrocytes and T cells PBMCs from patients with active, moderate to severe TAO enrolled in a phase 2 trial for teprotumumab were cryopreserved immediately after collection. Venous blood sampling occurred at baseline and at week 24, following 8 infusions at 3 weekly intervals. The post-treatment sample was obtained 3 weeks after the final infusion of active drug or placebo. Samples were thawed and incubated with 10% knockout serum replacement medium for 1h and stained. Rinsed samples were subjected to FACS analysis with a Calibur flow cytometer (BD). Viable cells were gated on the basis of forward light scatter. All samples were analyzed using quadrant settings based on negative staining with isotype control antibodies. Mean fluorescent intensity (MFI) was calculated as the ratio of mean sample to isotype control fluorescence. Data were analyzed with FCS Express software (De Novo Software, Ontario, CA).
Background: Flow cytometry measures light scatter and fluorescence of single cells or particles in a stream.

The next experiment has as its system GD-OF. Put plainly: Hyaluronan (HA) production, ELISA. It is filed as cell-based, human. As to conditions: 50 μg/ml, over 96 h. As for the experimental part:
(§1) FIGS. 13A-13B are graphs showing the effect of teprotumumab on bTSH induced hyaluronan (HA) production in GD-OF (FIG. 13A) and fibrocytes (FIG. 13B). GD-OF were treated with or without teprotumumab (50 μg/ml) or human Isotype IgG (5 μg/ml) for 7-9 d and stimulated with bTSH (5 mIU/mL) for graded intervals indicated along the abscissa for 0 to 96h. Media were collected and subjected to HA ELISA. Values were normalized to respective cell layer protein levels and expressed as the mean±SD of three independent determinations. Experiments were repeated three times. FIGS. 13C-13F are graphs showing the divergent pattern of hyaluronan synthase (HAS) isoenzyme induction by bTSH in fibrocytes versus GD-OF and effects of teprotumumab (FIGS. 13C and 13D) and linsitinib (FIGS. 13E and 13F). Confluent monolayers of GD-OF and fibrocytes remained untreated or received teprotumumab (50 μg/ml) or linsitinib (1 μM) and human Isotype IgG for 7-9 d. Some cultures were treated with bTSH (5 mIU/mL) for 6h. Cellular RNA was harvested mRNA was reverse transcribed, and cDNA subjected to quantitative real-time PCR for HAS1 and HAS2. Values were normalized to their respective GAPDH levels and are expressed as the mean±SD of three independent determinations. Experiments were repeated three times. *, P<0.05; **, p<0.01; ***. P<0.001.
(§2) IL-12, IL-23, IL-10, HA and BAFF ELISAs. […]

For experiment [2], the system named is fibrocytes. Put plainly: Hyaluronan (HA) production, ELISA. It is filed as cell-based, human. As to conditions: 50 μg/ml. The protocol:
as §1, §2
(ELISA stands for enzyme-linked immunosorbent assay.)

For experiment [3], the system named is fibrocytes. Briefly: mRNA stability with DRB. As to conditions: 50 μg/mL, up to 12 hrs. It is filed as cell-based, human. As for the experimental part: FIGS. 5A-5C show the effects of teprotumumab on basal and bTSH-induced gene promoter activities in GD-OF compared to fibrocytes, gene transcription and mRNA stabilities of MHC II, CD80, CD86, PD-L1 in fibrocytes. Confluent GD-OF and fibrocyte monolayers were treated with human Isotype IgG (5 μg/ml) or teprotumumab (50 μg/mL) for 3 d and transfected with a target gene promoter fragment (MHC-2, CD80, CD86, PD-L1, or negative control clone PG04). Following a 3-4 d incubation, they were treated without or with bTSH (5 mU/mL) for 2 h. Monolayers were rinsed, processed, and analyzed using the Secrete-Pair Dual Luminescence Assay Kit for promoter activity according to manufacturer's instructions (FIG. 5A). Values were normalized to internal controls. Fibrocyte monolayers were cross-linked with 16% formaldehyde isolated chromatin fragment and immunoprecipitated with anti-human HLA-DPB1, anti-CD80, anti-CD86, or anti-PD-L1 using the Pierce™ Agarose Chip Kit. Isolated DNA was subjected to RT-PCR using EpiTect ChIP qPCR Primer Assay (Qiagen) for each target (FIG. 5B). Each datum point represents values from three independent determinations from one of three experiments performed. *, p<0.05; ** p<0.01; and ***p<0.001. Fibrocyte cultures were pretreated with bTSH for 6 h. […] RNA was extracted, reverse transcribed, and subjected to real-time quantitative PCR for each target (FIG. 5C). […]

The subject of experiment [4] is fibrocyte/adherent T cell co-cultures. Briefly: IL-17A and INFγ released into culture medium (ELISA). It is filed as cell-based, human. As to conditions: 50 μg/mL, day 9. An excerpt:
ELISAs Media were collected from cultures treated as indicated and analyzed for concentrations of […] and IL-17A using specific ELISA kits (R&D systems) according to the manufacture's protocol.

In the case of teprotumumab, in experiment [1], the “reduction of IL-17A expression level in CD4+ T cells” value amounted to 47% and the “reduction of INFγ expression level in CD4+ T cells” value was found to be 41%. The “effects of bTSH on HA synthesis” value with GD-OF was “enhanced”. Moreover, in the experiment with fibrocytes [2], the “HA synthesis, bTSH with teprotumumab” value is “synergism”. The “stabilities of mRNA encoding MHC II, CD80, CD86, PD-L1” value in the experiment with fibrocytes [3] is given as “accelerated their decline”. Also, in experiment [4], the “reduction of IL-17A released into the culture media” value was 52% and the “reduction of INFγ released into the culture media” value amounted to 54%.

The record behind these values is US20250034264A1, “REGULATING T CELL IMMUNE RESPONSE THROUGH IGF-I RECEPTOR (IGF-1R)” (The Regents of the University of Michigan, priority 2021, published 2025).
